# “And” between values parts separate entries of the source, which are not always exact repeats. Equal entries are not always repeated. Where two headings read alike, the source gives them in different places.
# How the values were obtained:
# [1] = Stable form screen (slurry in solvents, XRPD); assay type: physicochemical; conditions: 2 weeks
# Experimental: Approximately 15-60 mg of amorphous (1-{3-[6-(9,9-difluoro-7-{2-[5-(2-methoxycarbonylamino-3-methyl-butyryl)-5-aza-spiro[2.4]hept-6-yl]-3H-imidazol-4-yl}-9H-fluoren-2-yl)-1H-benzoimidazol-2-yl]-2-aza-bicyclo[2.2.1]heptane-2-carbonyl}-2-methyl-propyl)-carbamic acid (HPLC purity of 99.3%) were weighed and transferred to a vial equipped with a mini magnetic stir bar. […] The slurry was allowed to stir for two weeks at room temperature (˜22° C.) and examined periodically.
# After two weeks, a sample of 300 μL of the slurry was removed from the vial, transferred to a centrifuge filter (Costar, 0.45 micron) and centrifuged at 1000 rpm for 2 minutes. The solid in the wet cake form were analyzed using XRPD analysis (PANalytical X'Pert PRO X-ray powder diffractometer). This diffractometer uses Cu-Kα radiation at a wavelength of 1.54178 Å, and it operates under reflection mode. Scan range is from 2 to 40 degree 2 theta. The step size is 0.0080 at a scan speed of 0.13°/s, which gives about 5 min per scan. After air drying the small sample, XRPD analysis was performed again to monitor any change in the diffraction pattern between the wet and dry material. Thermogravimetric analysis (TGA) was run on the saturated solution to determine the solubility of the equilibrating solids in the solvent when the solid appeared to be crystalline.
# [2] = Dynamic vapor sorption (DVS) hygroscopicity; assay type: physicochemical; conditions: for moisture uptake / weight gain (DVS): at 90% relative humidity
# [3] = Photostability of solid forms, photoexposure 0.9 M Lux-hrs, HPLC analysis; assay type: physicochemical
# Text: FIG. 6 compares the photodegradation behaviors of amorphous Compound I (vertical stripes), Compound I Form II (horizontal stripes), and a partially amorphous hydrochloride salt of Compound I (diagonal stripes) during photoexposure at 0.9 M Lux-hrs. The leftmost group of bars represents the overall decrease in HPLC % AN of these three forms of Compound I. The middle group of bars represents the formation of a primary photodegradation impurity resulting from each form of Compound I. The rightmost group of bars similarly represents the formation of a secondary photodegradation impurity that eluted on HPLC at relative retention time (RRT) 1.67.
# HPLC analyses of the samples compared the amounts of photodegradation products in each sample. […] For example, Form II of Compound I gave rise to the lowest (2.24% AN) amount of photodegradation in this experiment.
# The middle group and rightmost group of bars depict the amounts of two of the major photodegradation impurities formed after the three solid forms of Compound I were photoexposed.
# [4] = Dissolution rate / kinetic solubility in water at pH 3
# [5] = Slurry test in water; assay type: physicochemical
# Text: The source of water is believed to be moisture in the air during material transfer.
# [6] = Solubility of Compound I over a greater pH range; conditions: aqueous buffer
smiles,measurement,setting,value
"COC(=O)N[C@H](C(=O)N1CC2(CC2)C[C@H]1c1ncc(-c2ccc3c(c2)C(F)(F)c2cc(-c4ccc5nc([C@@H]6[C@H]7CC[C@H](C7)N6C(=O)[C@@H](NC(=O)OC)C(C)C)[nH]c5c4)ccc2-3)[nH]1)C(C)C [Compound I D-tartrate, (1-{3-[6-(9,9-difluoro-7-{2-[5-(2-methoxycarbonylamino-3-methyl-butyryl)-5-aza-spiro[2.4]hept-6-yl]-3H-imidazol-4-yl}-9H-fluoren-2-yl)-1H-benzoimidazol-2-yl]-2-aza-bicyclo[2.2.1]heptane-2-carbonyl}-2-methyl-propyl)-carbamic acid D-tartrate]",physical form by XRPD after slurry in various solvents,[1],physical form did not change
same,moisture uptake / weight gain (DVS),[2],less than 3%
"COC(=O)N[C@H](C(=O)N1CC2(CC2)C[C@H]1c1ncc(-c2ccc3c(c2)C(F)(F)c2cc(-c4ccc5nc([C@@H]6[C@H]7CC[C@H](C7)N6C(=O)[C@@H](NC(=O)OC)C(C)C)[nH]c5c4)ccc2-3)[nH]1)C(C)C [Compound I Form II, (1-{3-[6-(9,9-difluoro-7-{2-[5-(2-methoxycarbonylamino-3-methyl-butyryl)-5-aza-spiro[2.4]hept-6-yl]-3H-imidazol-4-yl}-9H-fluoren-2-yl)-1H-benzoimidazol-2-yl]-2-aza-bicyclo[2.2.1]heptane-2-carbonyl}-2-methyl-propyl)-carbamic acid methyl ester monoacetone solvate]",photostability compared with amorphous Compound I and partially amorphous HCl salt,[3],best photostability among the three forms compared
same,overall decrease in HPLC % AN (amount of photodegradation),[3]; solid,2.24 % AN
same,dissolution rate ranking,[4],slowest dissolution rate
"COC(=O)N[C@H](C(=O)N1CC2(CC2)C[C@H]1c1ncc(-c2ccc3c(c2)C(F)(F)c2cc(-c4ccc5nc([C@@H]6[C@H]7CC[C@H](C7)N6C(=O)[C@@H](NC(=O)OC)C(C)C)[nH]c5c4)ccc2-3)[nH]1)C(C)C [Compound I Form III, (1-{3-[6-(9,9-difluoro-7-{2-[5-(2-methoxycarbonylamino-3-methyl-butyryl)-5-aza-spiro[2.4]hept-6-yl]-3H-imidazol-4-yl}-9H-fluoren-2-yl)-1H-benzoimidazol-2-yl]-2-aza-bicyclo[2.2.1]heptane-2-carbonyl}-2-methyl-propyl)-carbamic acid methyl ester]",moisture uptake / weight gain (DVS),[2]; listed as Form III,less than 0.3%
same,hygroscopicity by DVS (words),[2]; listed as Form III,nonhygroscopic
"COC(=O)N[C@H](C(=O)N1CC2(CC2)C[C@H]1c1ncc(-c2ccc3c(c2)C(F)(F)c2cc(-c4ccc5nc([C@@H]6[C@H]7CC[C@H](C7)N6C(=O)[C@@H](NC(=O)OC)C(C)C)[nH]c5c4)ccc2-3)[nH]1)C(C)C [Compound I Form V, (1-{3-[6-(9,9-difluoro-7-{2-[5-(2-methoxycarbonylamino-3-methyl-butyryl)-5-aza-spiro[2.4]hept-6-yl]-3H-imidazol-4-yl}-9H-fluoren-2-yl)-1H-benzoimidazol-2-yl]-2-aza-bicyclo[2.2.1]heptane-2-carbonyl}-2-methyl-propyl)-carbamic acid methyl ester ethyl acetate solvate]",hygroscopicity by DVS (words),[2]; listed as Form V,non-hygroscopic
"COC(=O)N[C@H](C(=O)N1CC2(CC2)C[C@H]1c1ncc(-c2ccc3c(c2)C(F)(F)c2cc(-c4ccc5nc([C@@H]6[C@H]7CC[C@H](C7)N6C(=O)[C@@H](NC(=O)OC)C(C)C)[nH]c5c4)ccc2-3)[nH]1)C(C)C [Compound I Form VIII, (1-{3-[6-(9,9-difluoro-7-{2-[5-(2-methoxycarbonylamino-3-methyl-butyryl)-5-aza-spiro[2.4]hept-6-yl]-3H-imidazol-4-yl}-9H-fluoren-2-yl)-1H-benzoimidazol-2-yl]-2-aza-bicyclo[2.2.1]heptane-2-carbonyl}-2-methyl-propyl)-carbamic acid methyl ester]",stability in water (slurry test),[5],stable in water
same,water absorbed (DVS),[2],roughly one equivalent of water
"COC(=O)N[C@H](C(=O)N1CC2(CC2)C[C@H]1c1ncc(-c2ccc3c(c2)C(F)(F)c2cc(-c4ccc5nc([C@@H]6[C@H]7CC[C@H](C7)N6C(=O)[C@@H](NC(=O)OC)C(C)C)[nH]c5c4)ccc2-3)[nH]1)C(C)C [Compound I Form XV, (1-{3-[6-(9,9-difluoro-7-{2-[5-(2-methoxycarbonylamino-3-methyl-butyryl)-5-aza-spiro[2.4]hept-6-yl]-3H-imidazol-4-yl}-9H-fluoren-2-yl)-1H-benzoimidazol-2-yl]-2-aza-bicyclo[2.2.1]heptane-2-carbonyl}-2-methyl-propyl)-carbamic acid methyl ester]",hygroscopicity by DVS (words),[2]; listed as Form XV,non-hygroscopic
"COC(=O)N[C@H](C(=O)N1CC2(CC2)C[C@H]1c1ncc(-c2ccc3c(c2)C(F)(F)c2cc(-c4ccc5nc([C@@H]6[C@H]7CC[C@H](C7)N6C(=O)[C@@H](NC(=O)OC)C(C)C)[nH]c5c4)ccc2-3)[nH]1)C(C)C [Compound I, (1-{3-[6-(9,9-difluoro-7-{2-[5-(2-methoxycarbonylamino-3-methyl-butyryl)-5-aza-spiro[2.4]hept-6-yl]-3H-imidazol-4-yl}-9H-fluoren-2-yl)-1H-benzoimidazol-2-yl]-2-aza-bicyclo[2.2.1]heptane-2-carbonyl}-2-methyl-propyl)-carbamic acid methyl ester]",solubility,[6],< 1 µg/mL
COC(=O)N[C@H](C(=O)N1CC2(CC2)C[C@H]1c1ncc(-c2ccc3c(c2)C(F)(F)c2cc(-c4ccc5nc([C@@H]6[C@H]7CC[C@H](C7)N6C(=O)[C@@H](NC(=O)OC)C(C)C)[nH]c5c4)ccc2-3)[nH]1)C(C)C [amorphous Compound I],hygroscopicity by DVS (words),[2],hygroscopic
same,moisture induced phase transformation,[2]; any humidity level,does not undergo moisture induced phase transformation
same,moisture uptake / weight gain (DVS),[2],5.4% and 5.6%

# Source: patent US9139570B2, “Solid forms of an antiviral compound” (priority 2012, dated 2015)
